Earlier results on 1 molecule are cited in patent US8821913B2, “Controlled releases system containing temozolomide” (Tasly Holding Group Co., Ltd., priority 2002, dated 2014).

Read-outs that look alike come from different tables or passages of the source.

The conditions of data set [1]: phase I clinical trial.
The conditions of data set [2]: mouse.

For the molecule `Cn1nnc2c(C(N)=O)ncn2c1=O` [TMZ, Temozolomide], the half-life time in data set [1] is on record as 1.8 h; in data set [2] (i.p.), 1.13 h; in data set [2] (p.o.) it was 1.29 h. In addition, the “time to reach maximum plasma concentration” value in data set [1] was at most 0.7 h.
